According to patent US20230313296A1, “USING FLUORESCENT COLLAGEN α 1(I) AND α 2(I) mRNAs TO SCREEN DRUG CANDIDATES” (Florida State University Research Foundation, Inc., priority 2022, published 2023):

Columns and labels:
[1] = tested on: collagen ɑ1(I) 5′SL mRNA (2AP at G10); assay: Fluorescence measurement of the fluorescent ɑ1(I) 5′SL compound with test compound; format: binding, human; conditions: test compound added in micromolar concentrations; FIG. 5 top panel
Description: When the first fluorescent compound has the fluorophore 2AP substituted at the G10 position of the collagen ɑ1(I) 5′ stem loop mRNA and the fluorescence intensity increases, this indicates the first fluorescent compound has bound to LARP6.
(§1) The fluorescence intensity of the 2AP and PC fluorophores depends on their environment in the RNA fold, and the environment changes upon LARP6 or test compound binding to the RNA. The increase in fluorescence is seen if a fluorophore rotates outwards from its position within the RNA. This was seen when LARP6 bound to the fluorescent ɑ1(I) 5′SL compound. The fluorescence decreases if a fluorophore is masked by the bound drug or LARP6.
(§2) Referring to FIG. 5, the fluorescence measurements were performed using epirubicin as the test compound or drug.

[2] = tested on: collagen ɑ2(I) 5′SL mRNA (PC at C37); assay: Fluorescence measurement of the fluorescent ɑ2(I) 5′SL compound with test compound; format: binding, human; conditions: increasing drug concentrations; FIG. 5 bottom panel
Description: When the second fluorescent compound has the fluorophore PC at the C37 position of the collagen ɑ2(I) 5′ stem loop mRNA and the fluorescence intensity decreases when contacted with LARP6, this indicates binding of the second fluorescent compound to LARP6.
as §1, §2

[3] = tested on: complex of recombinant LA-domain of LARP6 with 5′SL RNA; assay: Gel mobility shift assay of LA-domain/5′SL RNA complex; format: binding; conditions: FIG. 6 lanes 4 and 5
Description: FIG. 6 is a gel mobility shift assay showing free RNA (RNA) and complex of LA-domain bound to RNA (RNA/LA). Lane 1 contains RNA only. Lane 2 contains the RNA/LA complex in absence of the test compound. Lanes 3-5 show dissociation of RNA/LA complexes with the test compound.
The inhibitory effect of this test compound on LARP6 binding was directly tested by gel mobility shift experiments, the results of which are in FIG. 6. This assay confirms the formation of a protein/RNA complex by physically separating them from free RNA. Without the test compound, the recombinant LA-domain of LARP6 formed a complex with 5′SL RNA (FIG. 6, lane 2, RNA/LA). […] This proves that the fluorescent 5′SL RNA compounds can be used to identify molecules that interact with 5′SL RNA and that are competitors of LARP6 binding and may be antifibrotic drugs.

[4] = biological target: T1, recombinant LA-domain of LARP6 (Homo sapiens, UniProt Q9BRS8); assay: Fluorescence of the fluorescent ɑ1(I) 5′SL compound on LA-domain binding; conditions: saturating amounts of LA-domain vs free compound; p<0.0001; FIG. 3
T1 construct: recombinant LA-domain of LARP6
T1 sequence (Q9BRS8 86-177 limits assumed): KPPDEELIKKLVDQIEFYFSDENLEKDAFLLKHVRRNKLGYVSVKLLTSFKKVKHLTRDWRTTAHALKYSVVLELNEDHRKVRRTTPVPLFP
Method: The increase resulted from flipping of the 2AP at the G10 position out of the fold. The increase in intensity of the excitation spectrum (left, measured at 370 nm emission) and the emission spectrum (right, measured at 310 nm excitation) were apparent when increasing concentrations of recombinant LA-domain of LARP6 were added to the sensor. The LA-domain is necessary and sufficient for 5′SL RNA recognition by LARP6 and recapitulates the full size LARP6 binding.
The increase in intensity of fluorescence emission with binding of the LA-domain was quantified by measuring the fluorescence of free fluorescent ɑ1(I) 5′SL compound and the same compound bound with saturating amounts of the LA-domain.
The intensity increased about 2-fold with statistical significance of p<0.0001.

[5] = biological target: T1, recombinant LA-domain of LARP6; assay: Fluorescence of the fluorescent ɑ2(I) 5′SL compound on LA-domain binding; conditions: increasing concentrations of recombinant LA-domain; FIG. 4
Description: This compound was less bright because its fluorophore has an emission that is about 7-fold less intense than that of the fluorescent ɑ1(I) 5′SL compound.
(§3) The decrease in the excitation spectrum (left, measured at 450 nm emission) and the emission spectrum (right, measured at 340 nm excitation) with increasing concentrations of recombinant LA-domain is shown in FIG. 5.

[6] = biological target: T2, LARP6 LA-domain (UniProt Q9BRS8 Q9BRS8:86-177); assay: pyrrolo-cytidine fluorescence decreases with increasing LA-domain; conditions: label: pyrrolo-cytidine at position 37; 5' stem-loop
T2 sequence: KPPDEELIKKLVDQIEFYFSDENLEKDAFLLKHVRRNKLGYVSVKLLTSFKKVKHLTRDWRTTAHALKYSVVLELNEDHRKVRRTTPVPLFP
Description: as §3

COc1cccc2c1C(=O)c1c(O)c3c(c(O)c1C2=O)C[C@@](O)(C(=O)CO)C[C@@H]3O[C@H]1C[C@H](N)[C@@H](O)[C@H](C)O1 [epirubicin]
change of fluorescence intensity of the fluorescent ɑ1(I) 5′SL compound [1]: decreased in the concentration dependent manner
change of fluorescence intensity of the fluorescent ɑ2(I) 5′SL compound [2]: decrease in fluorescence with increasing drug concentrations
concentration of test compound at which formation of RNA/LA complex was diminished [3]: > 50 µM

fluorescent ɑ1(I) 5′SL compound: SEQ ID NO: 1 collagen ɑ1(I) 5′SL RNA with G10 nucleotide substituted with 2-amino-purine (2AP) (CCACAAAGAGUCUACAUGUCUAGGGUCUAGACAUGUUCAGCUUUGUGG; G10 replaced by 2-aminopurine; listed as Homo sapiens)
increase in intensity of fluorescent emission on binding of the LA-domain [4]: about 2 fold

fluorescent ɑ2(I) 5′SL compound: SEQ ID NO: 2 collagen ɑ2(I) 5′SL RNA with C37 nucleotide substituted with pyrrolo-cytidine (PC)
fluorescence response to LA-domain binding [5]: decreasing its fluorescence

B1: fluorescent collagen a2(I) 5'SL (ssRNA)
RNA: CACAAGGAGUCUGCAUGUCUAAGUGCUAGACAUGCUCAGCUUUGUG
modifications: C37 substituted with pyrrolo-cytidine
binding result [6]: binds
